Each structure is given as a SMILES string.

Results on 16 compounds are retold here after ChEMBL document CHEMBL1150028, “-((Tetronoyl)oxy)- and -((tetramoyl)oxy)methyl ketone inhibitors of the interleukin-1 converting enzyme (ICE)” (Bioorg Med Chem Lett, 1997).

For data set [1], the target named is T1, Caspase-1 (Homo sapiens) (UniProt P29466).
T1 sequence (whole entry): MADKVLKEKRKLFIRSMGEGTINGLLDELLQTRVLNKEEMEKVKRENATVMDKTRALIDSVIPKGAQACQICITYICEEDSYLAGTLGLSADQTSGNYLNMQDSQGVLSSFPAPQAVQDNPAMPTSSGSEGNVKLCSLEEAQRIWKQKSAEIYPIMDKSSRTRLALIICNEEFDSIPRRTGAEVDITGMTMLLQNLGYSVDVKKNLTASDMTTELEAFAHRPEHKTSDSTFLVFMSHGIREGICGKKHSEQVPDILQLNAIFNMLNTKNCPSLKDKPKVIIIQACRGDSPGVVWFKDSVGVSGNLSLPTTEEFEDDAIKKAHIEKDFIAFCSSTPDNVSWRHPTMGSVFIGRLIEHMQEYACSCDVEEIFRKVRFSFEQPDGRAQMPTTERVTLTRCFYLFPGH
Put plainly: Inhibitory activity against IL-1 beta converting enzyme was determined.

Data set [2] can be described thus: Stability of compound was determined by its half life period. It is filed as physicochemical.

In data set [1], `O=C(O)C[C@H](NC(=O)OCc1ccccc1)C(=O)COC1=C(c2ccc(Cl)cc2)C(=O)OC1` showed a K obs / 1 of 4100 M⁻¹ s⁻¹. Take `CC1(C)OC(=O)C(c2ccccc2)=C1OCC(=O)[C@H](CC(=O)O)NC(=O)OCc1ccccc1`: in data set [1], the K obs / 1 was found to be 260 M⁻¹ s⁻¹. The compound `CC(C)[C@H](NC(=O)OCc1ccccc1)C(=O)N[C@@H](CC(=O)O)C(=O)COC1=C(c2ccccc2)C(=O)OC1` had a K obs / 1 in data set [1] of 27900 M⁻¹ s⁻¹.

On to `CC(C)[C@H](NC(=O)OCc1ccccc1)C(=O)N[C@@H](CC(=O)O)C(=O)COC(=O)c1c(Cl)cccc1Cl`, for which the K obs / 1 in data set [1] was found to be 41000 M⁻¹ s⁻¹. By half-life is commonly meant the time needed for the level to fall by half in the phase considered. High values mean slow loss, low ones fast loss. For `O=C(O)C[C@H](NC(=O)OCc1ccccc1)C(=O)COC1=C(c2ccccc2)C(=O)CC1`, in data set [2], the half-life is 3.9 h. The compound further gave a K obs / 1 in data set [1] of 3070 M⁻¹ s⁻¹. `O=C(O)C[C@H](NC(=O)OCc1ccccc1)C(=O)COC1=C(Cc2ccccc2)C(=O)OC1` had a half-life in data set [2] of 9.8 h. For the same compound, the K obs / 1 in data set [1] is 2850 M⁻¹ s⁻¹. With `CC(C)[C@H](NC(=O)OCc1ccccc1)C(=O)N[C@@H](CC(=O)O)C(=O)COC1=C(c2ccccc2)C(=O)NC1`, in data set [2], the half-life was 95 h. Besides, in data set [1], the K obs / 1 worked out at 8500 M⁻¹ s⁻¹. Turning to `COc1ccc(C2=C(OCC(=O)[C@H](CC(=O)O)NC(=O)OCc3ccccc3)COC2=O)cc1`, the K obs / 1 in data set [1] came to 4000 M⁻¹ s⁻¹. In data set [1], `O=C(O)C[C@H](NC(=O)OCc1ccccc1)C(=O)COC1=C(Cl)C(=O)OC1` yielded a K obs / 1 of less than 25 M⁻¹ s⁻¹. `O=C(O)C[C@H](NC(=O)OCc1ccccc1)C(=O)COC(=O)c1c(Cl)cccc1Cl` returned a K obs / 1 in data set [1] of 7100 M⁻¹ s⁻¹. As for `Cc1ccc(C2=C(OCC(=O)[C@H](CC(=O)O)NC(=O)OCc3ccccc3)COC2=O)cc1`, the K obs / 1 in data set [1] was 4500 M⁻¹ s⁻¹. With `CC(C)[C@H](NC(=O)OCc1ccccc1)C(=O)N[C@@H](C)C(=O)N[C@@H](CC(=O)O)C(=O)COC1=C(Cc2ccccc2)C(=O)OC1`, in data set [2], the half-life was 20 h. With `O=C(O)C[C@H](NC(=O)OCc1ccccc1)C(=O)COC1=CC(=O)OC1`, the K obs / 1 in data set [1] was 188 M⁻¹ s⁻¹. Turning to `CC(C)[C@H](NC(=O)OCc1ccccc1)C(=O)N[C@@H](CC(=O)O)C(=O)COC1=C(Cc2ccccc2)C(=O)OC1`, in data set [1], the K obs / 1 was 21200 M⁻¹ s⁻¹.

As to `O=C(O)C[C@H](NC(=O)OCc1ccccc1)C(=O)COC1=C(c2ccc(Cl)c(Cl)c2)C(=O)OC1`, the K obs / 1 in data set [1] turned out to be 640 M⁻¹ s⁻¹. For `O=C(O)C[C@H](NC(=O)OCc1ccccc1)C(=O)COC1=C(c2ccccc2)C(=O)OC1`, the half-life in data set [2] was 0.86 h. The compound further returned a K obs / 1 in data set [1] of 5700 M⁻¹ s⁻¹.
